We go through six compounds from patent publication EP0223671A1, “Medicament with a synergistic anti-inflammatory effect on the basis of a corticosteroid and a beta-agonist” (CENTRE INTERNATIONAL DE RECHERCHES DERMATOLOGIQUES GALDERMA …, priority 1985, dated 1987).

Counter-ions that a name gives are not always drawn. Marks after values point to notes of the source that are not given here.

For test [1], the system named is oedème de l'oreille induit par l'huile de croton. Briefly: Croton oil-induced ear oedema test in the rat. The class given is in vivo. The settings on record: inhibition of oedema vs control animals, topical on right ear 1 h before croton oil, read 6 h after, hydro-ethanolic gel vehicle. How it is done: On applique de façon normalisée sur les faces interne et externe de l'oreille droite de rats une solution d'huile de croton ayant la composition suivante: • - pyridine : 4ml • - oxyde de diéthyle: 13ml • - huile de croton^*: 2ml • - eau qsp 20ml ^* SIGMA réf. C4755
Les animaux traités reçoivent, une heure avant l'application de l'huile de croton, une application sur l'oreille droite par voie topique, du produit étudié dans le véhicule suivant (placebo):gel hydroéthanolique à 2X d'hydroxypropyl cellulose (KLUCEL HF); (proportion eau-éthanol : 80/20).
Les animaux témoins ne reçoivent que l'application d'huile de croton.
Six heures après l'application d'huile de croton, on évalue l'importance de l'oedème par comparaison de l'oreille droite et de l'oreille gauche. On calcule ensuite l'inhibition de l'oedème, en pourcentage, par rapport aux animaux témoins.

Test [2] has as its system érythème induit par UVB. Briefly: UVB-induced erythema test in the guinea pig. The class given is in vivo, cobaye. The following applies: dose 5 % p/v, 100 microlitres per site, topical 1 h after irradiation; vs animals given vehicle alone. Here is the method:
Les flancs des cobayes sont rasés à la tondeuse 24 heures avant l'expérience. On soumet les animaux à une irradiation à l'aide d'une lampe à vapeur de mercure. On irradie pendant 30 secondes deux sites de diamètre 1,5cm sur chaque flanc. Une heure après l'irradiation, on applique par voie topique le produit étudié sur chaque site irradié d'un seul flanc. Les observations de l'érythème sont faites 2h, 3,5h, 5h et 24h après l'application du produit. L'érythème est évalué selon une échelle de 0 à 5.
Les produits sont appliqués dans le véhicule suivant: • N,N-diméthylacétamide: 20ml • acétone : 40ml • éthanol : 40ml
On applique un volume de 100 microlitres par site.
On évalue l'importance de l'érythème en comparant les flancs droit et gauche. On calcule ensuite l'inhibition de l'érythème, en pourcentage, par rapport aux animaux témoins ayant reçu une application du véhicule seul.

Take `CCCC(=O)O[C@]1(C(=O)CO)CC[C@H]2[C@@H]3CCC4=CC(=O)CC[C@]4(C)[C@H]3[C@@H](O)C[C@@]21C` [HYDROCORTISONE 17 BUTYRATE, Hydrocortisone-17 butyrate]: in test [1] (dose 0.1 % p/v), the “POURCENTAGE D'INHIBITION” value is given as 30%.

For `C[C@]12CCC(=O)C=C1CC[C@@H]1[C@@H]2[C@@H](O)C[C@@]2(C)[C@H]1CC[C@]2(O)C(=O)CO` [HYDROCORTISONE, Hydrocortisone], the “POURCENTAGE D'INHIBITION” value in test [1] (dose 0.1 % p/v) worked out at 14%. Also, in test [2], the “POURCENTAGE D'INHIBITION DE L'ERYTHEME 5 HEURES APRES APPLICATION” value came out at 3 NS %.

Turning to `CC(C)NCC(O)COc1cccc2ccccc12` (stereo not shown) [PROPRANOLOL], the “P[…]'INHIBITION” value in test [1] (dose 0.5 % p/v) is on record as 5%.

On to `CC(C)(C)NCC(O)c1ccc(O)c(CO)c1` (stereo not shown) [SALBUTAMOL SULFATE, 2-(tert-butylamino)-1-(4-hydroxy-3-hydroxyphényl)éthanol], for which, in test [1] (dose 0.5 % p/v), the “POURCENTAGE D'INHIBITION” value turned out to be 14%.

Regarding `CC(C)(C)NCC(O)c1ccc(O)c(CO)c1` (stereo not shown) [SALBUTAMOL, 2-(tert-butylamino)-1-(4-hydroxy-3-hydroxyphényl)éthanol], in test [2], the “POURCENTAGE D'INHIBITION DE L'ERYTHEME 5 HEURES APRES APPLICATION” value is 14 * %.

Turning to `CC(C)(C)NCC(O)c1cc(O)cc(O)c1` (stereo not shown) [TERBUTALINE SULFATE, 1-(3,5-dihydroxyphényl)-2-(tert-butylamino)éthanol], in test [1] (dose 0.5 % p/v), the “POURCENTAGE D'INHIBITION” value worked out at 12%.
